# Measurements reported in publication PMC12481576, “Barbituric Acid Derivatives as Covalent Inhibitors of Leishmania braziliensis Dihydroorotate Dehydrogenase” (Journal of Medicinal Chemistry, 2025).
# Where two headings read alike, the source gives them in different places.
# Assays:
# [1] = Parallel artificial membrane permeability assay (PAMPA); conditions: PBS pH 7.4/7.4, 6h at room temperature; for recovery at 6 h, 10 µM: PAMPA; for recovery at 6 h, 10 µM / Avg Log Pe (cm/sec) / Avg Pe: 10µM; for Pe (nm/sec) n=1: replicate n=1; for Pe (nm/sec) n=1 / Pe (nm/sec) n=2: 10µM (5% DMSO), LC-MS/MS; for Pe (nm/sec) n=2: replicate n=2
# Experimental: Solutions of the compounds were prepared in duplicate by diluting the stock solutions (10 mM) in phosphate buffered saline (PBS) pH 7.4 at a final concentration of 10 μM (5% DMSO). The solutions diluted in PBS pH 7.4 were then added to the donor portion of the plate (300 μL/well), while in the acceptor portion PBS pH 7.4 (200 μL/well) was added. The two portions of the plate were then coupled, and the system was incubated for 6 h at room temperature. Samples of the initial donor solution (T0) were collected at the beginning (T0) and stored at 5 °C. The final concentrations of compounds in the donor, acceptor and T0 wells were quantified by LC-MS/MS.
# [2] = target: LbDHODH (Leishmania braziliensis, UniProt E9AI53); assay: biochemical; conditions: for IC50: LbDHODH; for activity at 100 µM: LbDHODH remaining activity, compound 100 μM
# Sequence of LbDHODH (E9AI53 entry or part of it): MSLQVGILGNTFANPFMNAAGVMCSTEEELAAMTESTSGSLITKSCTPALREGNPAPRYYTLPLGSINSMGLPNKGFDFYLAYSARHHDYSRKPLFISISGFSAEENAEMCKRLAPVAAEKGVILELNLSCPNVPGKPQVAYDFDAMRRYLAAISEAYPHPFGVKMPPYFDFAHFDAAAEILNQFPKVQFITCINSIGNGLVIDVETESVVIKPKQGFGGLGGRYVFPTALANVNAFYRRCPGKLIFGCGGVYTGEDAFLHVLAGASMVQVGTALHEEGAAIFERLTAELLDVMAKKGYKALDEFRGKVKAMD
# Experimental: To assess the ability of compounds 2a–2i to inhibit LbDHODH via covalent bond formation with Cys^131, we initially screened them at a concentration of 100 μM under two conditions: with and without a 4-h preincubation with the enzyme.
# The experiments were performed in a 96-well microplate reader (SpectraMax Plus 384, Molecular Devices, USA), containing the […] of the buffer 60 mM DCIP, 50 mM Tris pH 8.15, 150 mM KCl, 0.1% Triton X-100, 50 μM DHO and 10 μM of LbDHODH at 165 nM. The reaction was monitored every 3 s at 610 nm over a period of 60 s, in triplicate, for the control and each concentration of the inhibitor. All assays were performed without incubation (0h) and with 4-h preincubation of the inhibitor with LbDHODH, using 5% DMSO (v/v) as control. […]. […] The resulting kobs values were plotted as a function of inhibitor concentration, and the data in the initial linear region was fit to determine the slope, which is kinact/KI. All regressions were performed with GraphPad Prism 9.
# [3] = mouse liver microsomes; for Raw data: analyte peak area, T=0: 0 min; for Raw data: analyte peak area, T=0 / Raw data: analyte peak area, T=5 / Raw data: analyte peak area, T=10 / Raw data: analyte peak area, T=20 / Raw data: analyte peak area, T=30 / Raw data: analyte peak area, T=60: raw LC-MS area; for Raw data: analyte peak area, T=10: 10 min; for Raw data: analyte peak area, T=30: 30 min; for Raw data: analyte peak area, T=60: 60 min
# [4] = in vitro; conditions: liver microsomes, pH 7.4, % Remaining, 1 µM; for remaining at 10 min, 1 µM: T=10 min; for remaining at 1 h, 1 µM: T=60 min, 60 min
# [5] = target: T1, HsDHODH (Homo sapiens, UniProt Q02127); assay: Selectivity assay: HsDHODH single-dose inhibition (DCIP reduction); assay type: biochemical; conditions: HsDHODH remaining activity, 100 μM
# T1 construct: made in house
# T1 sequence (Q02127 whole entry): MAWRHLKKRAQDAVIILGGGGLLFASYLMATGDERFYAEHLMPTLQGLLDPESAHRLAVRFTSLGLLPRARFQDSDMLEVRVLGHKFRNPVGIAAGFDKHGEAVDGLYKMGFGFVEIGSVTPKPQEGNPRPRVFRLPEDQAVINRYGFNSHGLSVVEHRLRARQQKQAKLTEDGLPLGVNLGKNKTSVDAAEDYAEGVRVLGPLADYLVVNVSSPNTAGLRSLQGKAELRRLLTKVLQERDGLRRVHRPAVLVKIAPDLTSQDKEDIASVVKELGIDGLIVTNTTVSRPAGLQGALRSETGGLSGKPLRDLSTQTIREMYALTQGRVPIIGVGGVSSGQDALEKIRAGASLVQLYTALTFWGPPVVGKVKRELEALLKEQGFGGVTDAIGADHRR
# Experimental: […]. This finding highlights the potential of barbituric acid derivatives as selective inhibitors of LbDHODH.
# Human DHODH expression and purification were conducted following a protocol previously established in our laboratory. The purification was carried out by affinity chromatography on a Ni-NTA Agarose column (Qiagen[…] Cat. No. 30210). […] The reaction was performed in triplicate, initiated by adding 195 μL of reaction buffer to 5 μL of HsDHODH protein solution for a final concentration of 20 nM enzyme. As a blank, 195 μL of reaction buffer was added to 5 μL of Buffer A. The reaction was monitored at 610 nm every 3 s over 60 s. As a control, 5 μL of enzyme was added to 195 μL of reaction medium without compound. Enzymatic velocity was calculated, and the percentage of relative enzymatic activity was determined relative to the control.
# [6] = pH 7.4, % Recovery n=1, replicate n=1
# [7] = pH 7.4, % Recovery n=2, replicate n=2
# [8] = pH 7.4, Avg % Recovery, average of n=2
# [9] = mouse, n=1, mouse liver microsomes, n=1
# [10] = mouse, n=2, mouse liver microsomes, n=2
compound,measurement,setting,value
NC(=O)N1c2ccccc2C=Cc2ccccc21 [Carbamazepine],"recovery at 6 h, 10 µM",[1]; [6],100%
same,"recovery at 6 h, 10 µM",[1]; [7],92.5%
same,"recovery at 6 h, 10 µM",[1]; [8],96.3%
same,Avg Log Pe (cm/sec),[1]; average of n=2,-5.1 cm/sec
same,Avg Pe,[1]; average of n=2,7.83 ×10⁻⁶ cm/s
same,Pe (nm/sec) n=1,[1],80.3 nm/s
same,Pe (nm/sec) n=2,[1],76.4 nm/s
NS(=O)(=O)c1cc(C(=O)O)c(NCc2ccco2)cc1Cl [Furosemide],"recovery at 6 h, 10 µM",[1]; [6],89.7%
same,"recovery at 6 h, 10 µM",[1]; [7],91.4%
same,"recovery at 6 h, 10 µM",[1]; [8],90.6%
same,Avg Pe,[1]; average of n=2,4.97e-05 ×10⁻⁶ cm/s
same,Pe (nm/sec) n=1,[1],0.000533 nm/s
same,Pe (nm/sec) n=2,[1],0.000461 nm/s
"O=C(O)c1cc(=O)[nH]c(=O)[nH]1 [Orotate, orotate]",IC50,"[2]; IC50 4 h, 4-h preincubation",27 ± 1 µM
same,activity at 100 µM,"[2]; 4-h preincubation, read-out: single dose (4 h) % activity",27 ± 2%
same,activity at 100 µM,"[2]; without preincubation, read-out: single dose (0 h) % activity",35 ± 4%
same,IC50,"[2]; without preincubation, read-out: IC50 0 h",57 ± 2 µM
CC(C)NCC(O)COc1cccc2ccccc12 (centres unmarked) [Propranolol],"recovery at 6 h, 10 µM",[1]; [6],85.7%
same,"recovery at 6 h, 10 µM",[1]; [7],82.4%
same,"recovery at 6 h, 10 µM",[1]; [8],84%
same,Avg Log Pe (cm/sec),[1]; average of n=2,-5.2 cm/sec
same,Avg Pe,[1]; average of n=2,6.15 ×10⁻⁶ cm/s
same,Pe (nm/sec) n=1,[1],53.6 nm/s
same,Pe (nm/sec) n=2,[1],69.4 nm/s
same,"Raw data: analyte peak area, T=0",[3]; replicate 1 (left block),97333
same,"Raw data: analyte peak area, T=0",[3]; replicate 2 (right block),94436
same,"% Remaining, T=5 min, n=1","[3]; 1 µM, 5 min, n=1",58.1%
same,"% Remaining, T=20 min, n=1","[3]; 1 µM, 20 min, n=1",31.9%
same,"Raw data: analyte peak area, T=5","[3]; 5 min, replicate 1 (left block)",56345
same,"Raw data: analyte peak area, T=5","[3]; 5 min, replicate 2 (right block)",55807
same,"Raw data: analyte peak area, T=10",[3]; replicate 1 (left block),45227
same,"Raw data: analyte peak area, T=10",[3]; replicate 2 (right block),43475
same,"Raw data: analyte peak area, T=20","[3]; 20 min, replicate 1 (left block)",29264
same,"Raw data: analyte peak area, T=20","[3]; 20 min, replicate 2 (right block)",29449
same,"Raw data: analyte peak area, T=30",[3]; replicate 1 (left block),21377
same,"Raw data: analyte peak area, T=30",[3]; replicate 2 (right block),25558
same,"Raw data: analyte peak area, T=60",[3]; replicate 1 (left block),15713
same,"Raw data: analyte peak area, T=60",[3]; replicate 2 (right block),15931
same,"remaining at 5 min, 1 μM","[4]; male, CD1, mouse, T=5 min, n=2, mouse liver microsomes, 5 min, n=2",52.5%
same,"remaining at 10 min, 1 µM",[4]; [9],46.8%
same,"remaining at 10 min, 1 µM",[4]; [10],43.5%
same,"remaining at 20 min, 1 µM","[4]; mouse, T=20 min, n=2, mouse liver microsomes, 20 min, n=2",31.2%
same,"remaining at 0.5 h, 1 µM","[4]; mouse, T=30 min, n=1, mouse liver microsomes, 30 min, n=1",22.7%
same,"remaining at 1 h, 1 µM",[4]; [9],16%
same,"remaining at 1 h, 1 µM",[4]; [10],15.5%
"C/C(O)=C(\C#N)C(=O)Nc1ccc(C(F)(F)F)cc1 [Teriflunomide, reference compound]",activity at 100 µM,"[5]; 4-h incubation, read-out: Single dose (4h) % activity",0.39 ± 0.04%
same,activity at 100 µM,"[5]; without incubation, read-out: Single dose (0h) % activity",0.6 ± 0.1%
